{
  "source": "patent US10039761B2",
  "about": "“Co-crystals and pharmaceutical compositions comprising the same” (Vertex Pharmaceuticals Incorporated, priority 2013, dated 2018)",
  "key": {"[1]": {"tested_on": "OD26749 primary NSCLC xenograft", "assay": "OD26749 primary NSCLC xenograft efficacy with whole body IR", "assay_type": "in vivo, nude mice", "conditions": "bridging study; Compound (2) PO 50 mg/kg bid (0, 4 h), 2 Gy ([…]) qdx3", "description": "The in vivo efficacies of Compounds (1) and (2) in combination with whole body IR were examined in the OD26749 primary NSCLC (non-small cell lung cancer) and the OE-19 GEJ cell line xenograft models. In these studies, Compounds (1) and (2) were formulated with 16% captisol/1% PVP/1% HPMC E5 pH2.\nThe in vivo efficacy of Compound (1) was evaluated in the primary OD26749 NSCLC subcutaneous xenograft model. […] […] Compound (1) was administered PO (tid at 0, 3, and 7 h) at 100 mg/kg alone or with a single 2 Gy dose of whole body IR at 3.25 h. […] Compound (1) in combination with 2 Gy whole body IR induced significant tumor regression (% T/Ti of −75; P<0.01) compared to IR alone.\nThe efficacies of Compounds (1) and (2) in combination with whole body IR (2 Gy) were evaluated in the OD26749 primary NSCLC xenograft model at a Compound ([…]) and Compound (2) dose levels of 50 mg/kg and 100 mg/kg PO bid (0 and 4 h). Two cycles of whole body IR (2 Gy) were given 15 min after the first compound administration (0.25 hour). Control animals were administered vehicle PO bid (0 and 4 h). […]\n(§1) In Tables 14 and 15, for example, PO bid (0, 4 h) indicates Compound (2) is administered twice (bid) at time point 0 and then 4 hours after; IR (0.25 h) qdx3 indicates radiation is administered 15 minutes (0.25 h) after the administration of Compound (2) (0 h), and once a day for 3 days (qdx3); q7dx2 indicates once a week for two weeks; qod indicates every other day twice (e.g., Day 1 and Day 3); and paclitaxel q7dx3 (−0.25 h), carboplatin q7dx3 (−0.25 h) indicates administration of paclitaxel and carboplatin 15 minutes prior to the administration of Compound (2), followed by additional administration of Compound (2) after 4 hours after the first administration of Compound (2)."}, "[2]": {"assay": "Blood exposure in OD26749 bridging study", "assay_type": "in vivo, nude mice", "conditions": "nude, mouse, whole blood; 100 mg/kg PO bid (0 and 4 h) combination groups with 2 Gy whole body IR"}, "[3]": {"tested_on": "LU-01-0030 primary NSCLC subcutaneous xenograft", "assay": "LU-01-0030 primary NSCLC xenograft efficacy with focused IR", "assay_type": "in vivo, mice", "description": "(§2) The in vivo efficacies of Compounds (1) and (2) were evaluated alone and in combination with three consecutive days of focused IR in the primary LU-01-0030 NSCLC subcutaneous xenograft model. The dose-dependent anti-tumor activity of Compound (2) alone and in combination with focused beam IR was evaluated in the LU-01-0030 model.\nas §1"}, "[4]": {"assay": "Body weight in LU-01-0030 xenograft studies", "assay_type": "in vivo, mice", "conditions": "Day 34 study", "description": "as §2, with “LU-01-0030 model. […] Mice in the combination treatment groups were monitored (without treatment) for up to 90 days as some mice had no evidence of tumor burden.” for “LU-01-0030 model.”"}, "[5]": {"assay": "Body weight in OE-19 xenograft studies", "assay_type": "in vivo", "conditions": "PO 100 mg/kg bid (0, 4 h) q7dx2, 2 Gy IR q7dx2 ([…]); Day 7", "description": "The OE-19 cell line xenograft model was used to evaluate the efficacy of Compounds (1) and (2) alone and in combination with IR. Two cycles of treatment were administered (Day 0 and Day 7) as performed in the OD26749 model above."}, "[6]": {"tested_on": "ST-02-0004 primary GEJ tumor xenograft", "assay": "ST-02-0004 primary GEJ tumor xenograft efficacy with focused IR", "assay_type": "in vivo", "conditions": "for % T/C (Day 45): 5 mg/kg paclitaxel, 25 mg/kg carboplatin q7dx3 (−[…])", "description": "The in vivo activities of Compounds (1) and (2) were compared in combination with focused beam IR in a primary gastric cancer subcutaneous xenograft model. In the ST 02 0004 model, focused IR was administered on three consecutive days alone and in combination with Compound (1) or Compound (2).\nThe anti-tumor activity of Compound (2) in combination with focused-beam IR and the standard of care agents, paclitaxel and carboplatin, was also evaluated in the ST 02 0004 model. Treatment with paclitaxel, carboplatin, and IR was administered once per week for three weeks alone or in combination with Compound (2).\nas §1"}, "primary human tumors": {"tested_on": "primary human tumors", "assay": "Primary tumor chemosensitivity assay (TCA), Cell Titer-Glo, Bliss", "assay_type": "cell-based", "conditions": "Compound (2) with bleomycin; gastric, pancreatic tumors", "description": "Primary human tumors tested in vitro may provide a better indicator of efficacy of DNA PK inhibition than immortalized cancer cell lines due to their increased heterogeneity and closer proximity to the patient tumor from which they were derived. […] Dissociated cells from mouse-passaged tumors were cultured for 6 days after combination exposure and then assessed for viability using the Cell Titer-Glo assay. The Bliss Additivity statistical model was used to determine the degree of synergy, additivity, or antagonism of each combination treatment."}, "[7]": {"assay": "Body weight in OD26749 xenograft studies", "assay_type": "in vivo, nude mice", "conditions": "bridging study; Compound (2) PO 50 mg/kg bid (0, 4 h), 2 Gy ([…]) qdx3; Day 1"}},
  "data": [
    {"smiles": "[2H]c1nc(C)nc([2H])c1-c1cc(NC[C@@H](C)c2cccc3c(C(=O)NC)ccnc23)ncn1", "note": "[Compound (2), (S)-N-methyl-8-(1-((2′-methyl-4′,6′-dideutero-[4,5′-bipyrimidin]-6-yl)amino)propan-2-yl)quinoline-4-carboxamide]", "values": [
      {"measurement": "% T/C (Day 22)", "setting": "[1]", "result": 27.2, "unit": "%"},
      {"measurement": "AUC", "setting": "[2]", "result": 58200, "unit": "ng·h/mL"},
      {"measurement": "% T/Ti (Day 34)", "setting": "[3]; PO 25 mg/kg bid (0, 4 h) qdx3, 2 Gy IR ([…]) qdx3", "result": "−67.1", "unit": "%"},
      {"measurement": "% T/Ti (Day 34)", "setting": "[3]; PO 50 mg/kg bid (0, 4 h) qdx3, 2 Gy IR ([…]) qdx3", "result": "−96.3", "unit": "%"},
      {"measurement": "% T/C (Day 34)", "setting": "[3]; PO 50 mg/kg bid (0, 4 h) qdx3, no IR", "result": 98.3, "unit": "%"},
      {"measurement": "% T/Ti (Day 34)", "setting": "[3]; PO 50 mg/kg qdx3, 2 Gy IR ([…]) qdx3", "result": "−96.9", "unit": "%"},
      {"measurement": "Max. body wt loss (%)", "setting": "[4]; PO 25 mg/kg bid (0, 4 h) qdx3, 2 Gy IR ([…]) qdx3, Day 3", "result": "−6.59", "unit": "%"},
      {"measurement": "Max. body wt loss (%)", "setting": "[4]; PO 25 mg/kg qdx3, 2 Gy IR ([…]) qdx3, Day 1", "result": "−4.62", "unit": "%"},
      {"measurement": "Max. body wt loss (%)", "setting": "[4]; PO 50 mg/kg bid (0, 4 h) qdx3, 2 Gy IR ([…]) qdx3, Day 3", "result": "−6.93", "unit": "%"},
      {"measurement": "Max. body wt loss (%)", "setting": "[4]; PO 50 mg/kg bid (0, 4 h) qdx3, no IR, Day 9", "result": "−1.11", "unit": "%"},
      {"measurement": "Max. body wt loss (%)", "setting": "[4]; PO 50 mg/kg qdx3, 2 Gy IR ([…]) qdx3, Day 3", "result": "−4.66", "unit": "%"},
      {"measurement": "Max. body wt loss (%)", "setting": "[5]", "result": "−6.50", "unit": "%"},
      {"measurement": "% T/C (Day 45)", "setting": "[6]; 2 Gy IR qdx3 ([…]), Compound (2) PO 25 mg/kg bid (0, 4 h) qdx3", "result": 11.1, "unit": "%"},
      {"measurement": "% T/C (Day 45)", "setting": "[6]; 2 Gy IR qdx3 ([…]), Compound (2) PO 50 mg/kg bid (0, 4 h) qdx3", "result": 2.5, "unit": "%"},
      {"measurement": "% T/C (Day 45)", "setting": "[6]; Compound (2) PO 50 mg/kg bid (0, 4 h) qdx3, no IR", "result": 95.4, "unit": "%"},
      {"measurement": "% T/C (Day 34)", "setting": "[6]; Compound (2) PO 25 mg/kg bid (0, 4 h) qdx3, 2 Gy IR qdx3 ([…])", "result": 17.4, "unit": "%"},
      {"measurement": "% T/C (Day 34)", "setting": "[6]; Compound (2) PO 100 mg/kg bid (0, 4 h) qdx3, 2 Gy IR qdx3 ([…])", "result": 9.2, "unit": "%"},
      {"measurement": "% T/C (Day 34)", "setting": "[6]; Compound (2) PO 100 mg/kg bid (0, 4 h) qdx3, no IR", "result": 67.6, "unit": "%"},
      {"measurement": "tumors additive or synergistic / tumors tested", "setting": "primary human tumors", "result": "20/20"},
      {"measurement": "tumors strongly synergistic / tumors tested", "setting": "primary human tumors", "result": "3/20"},
      {"measurement": "Max. body wt loss (%)", "setting": "[7]", "result": "−2.10", "unit": "%"}
    ]}
  ]
}
